Laboratory results as given in PubChem BioAssay (NCI).
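Where inhibition never reached the appropriate level, the endpoint shown equals the highest concentration tested. Otherwise, values were interpolated linearly from a five-concentration, 48-hour dose response in 96-well plates. At the GI50, growth is halved. TGI: total growth inhibition.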

Columns and labels:
Experiment in all cases: inhibition of tumour cell growth, NCI panel, 48 h
[1] = tested on: NCI-H226 lung
[2] = tested on: HCT-116 colon
[3] = tested on: COLO 205 colon
[4] = tested on: OVCAR-8 ovarian
[5] = tested on: SNB-19 CNS
[6] = tested on: SK-OV-3 ovarian
[7] = tested on: HOP-62 NSCLC
[8] = tested on: A549 NSCLC
[9] = tested on: SW-620 colon
[10] = tested on: OVCAR-5 ovarian
[11] = tested on: UACC-62 melanoma
[12] = tested on: UACC-257 melanoma
[13] = tested on: NCI/ADR-RES ovarian
[14] = tested on: M14 melanoma
[15] = tested on: SK-MEL-28 melanoma
[16] = tested on: ACHN renal
[17] = tested on: HCT-15 colon
[18] = tested on: MOLT-4 leukemia
[19] = tested on: RPMI-8226 leukemia
[20] = tested on: IGROV1 ovarian
[21] = tested on: T-47D breast
[22] = tested on: SK-MEL-5 melanoma
[23] = tested on: UO-31 renal
[24] = tested on: SN12C renal
[25] = tested on: HS 578T breast
[26] = tested on: MCF7 breast
[27] = tested on: LOX IMVI melanoma
[28] = tested on: BT-549 breast
[29] = tested on: MDA-MB-231 breast
[30] = tested on: RXF 393 renal
[31] = tested on: OVCAR-3 ovarian
[32] = tested on: 786-0 renal
[33] = tested on: OVCAR-4 ovarian
[34] = tested on: SR leukemia
[35] = tested on: NCI-H522 lung
[36] = tested on: EKVX NSCLC
[37] = tested on: MDA-MB-435
[38] = tested on: A498 renal
[39] = tested on: HOP-92 NSCLC
[40] = tested on: HT29 colon
[41] = tested on: HL-60(TB) leukemia
[42] = tested on: SF-295 CNS
[43] = tested on: MALME-3M melanoma
[44] = tested on: CCRF-CEM leukemia
[45] = tested on: U251 CNS
[46] = tested on: K-562 leukemia
[47] = tested on: NCI-H460 lung
[48] = tested on: NCI-H23 lung
[49] = tested on: SF-539 CNS
[50] = tested on: KM12 colon
[51] = tested on: HCC-2998 colon
[52] = tested on: TK-10 renal
[53] = tested on: SK-MEL-2 melanoma
[54] = tested on: SF-268 CNS
[55] = tested on: CAKI-1 renal
[56] = tested on: SNB-75 CNS
[57] = tested on: MDA-MB-468 breast
[58] = tested on: PC-3 prostate
[59] = tested on: DU-145 prostate

O=C1NC(=NC23CC4CC(CC(C4)C2)C3)N/C1=C\c1ccc2ncoc2c1
GI50 [1]: 475 nM | TGI [1]: > 100000 nM | GI50 [2]: 99.3 nM | TGI [2]: > 100000 nM | GI50 [3]: 405 nM | TGI [3]: 5910 nM | GI50 [4]: 293 nM | TGI [4]: > 100000 nM | GI50 [5]: 319 nM | TGI [5]: > 100000 nM | GI50 [6]: 4040 nM | TGI [6]: > 100000 nM | GI50 [7]: 413 nM | TGI [7]: > 100000 nM | GI50 [8]: 283 nM | TGI [8]: > 100000 nM | GI50 [9]: 318 nM | TGI [9]: > 100000 nM | GI50 [10]: 322 nM | TGI [10]: > 100000 nM | GI50 [11]: 347 nM | TGI [11]: 1390 nM | GI50 [12]: 863 nM | TGI [12]: > 34400 nM | GI50 [13]: 253 nM | TGI [13]: 1210 nM | GI50 [14]: 325 nM | TGI [14]: > 100000 nM | GI50 [15]: 333 nM | TGI [15]: 1830 nM | GI50 [16]: 210 nM | TGI [16]: 5200 nM | GI50 [17]: 240 nM | TGI [17]: > 100000 nM | GI50 [18]: 281 nM | TGI [18]: > 100000 nM | GI50 [19]: 279 nM | TGI [19]: 28500 nM | GI50 [20]: 430 nM | TGI [20]: > 44800 nM | GI50 [21]: 427 nM | TGI [21]: > 100000 nM | GI50 [22]: 144 nM | TGI [22]: 5650 nM | GI50 [23]: 358 nM | GI50 [24]: 254 nM | TGI [24]: > 100000 nM | GI50 [25]: 412 nM | TGI [25]: 4200 nM | GI50 [26]: 324 nM | TGI [26]: > 100000 nM | GI50 [27]: 239 nM | TGI [27]: > 100000 nM | GI50 [28]: 160 nM | TGI [28]: 1400 nM | GI50 [29]: 369 nM | TGI [29]: 8050 nM | GI50 [30]: 215 nM | TGI [30]: 477 nM | GI50 [31]: 243 nM | TGI [31]: > 84300 nM | GI50 [32]: 434 nM | TGI [32]: > 100000 nM | GI50 [33]: 902 nM | TGI [33]: > 43300 nM | GI50 [34]: 45.1 nM | TGI [34]: 2480 nM | GI50 [35]: 230 nM | TGI [35]: 5630 nM | GI50 [36]: 469 nM | TGI [36]: 4560 nM | GI50 [37]: 613 nM | TGI [37]: > 100000 nM | GI50 [38]: 312 nM | TGI [38]: 919 nM | GI50 [39]: 511 nM | TGI [39]: > 91700 nM | GI50 [40]: 1520 nM | TGI [40]: > 100000 nM | GI50 [41]: 308 nM | TGI [41]: 2290 nM | GI50 [42]: 487 nM | TGI [42]: > 100000 nM | GI50 [43]: 952 nM | TGI [43]: 3710 nM | GI50 [44]: 267 nM | GI50 [45]: 303 nM | TGI [45]: > 100000 nM | GI50 [46]: 589 nM | TGI [46]: > 100000 nM | GI50 [47]: 385 nM | TGI [47]: > 55500 nM | GI50 [48]: 217 nM | TGI [48]: 1510 nM | GI50 [49]: 103 nM | TGI [49]: 474 nM | GI50 [50]: 342 nM | TGI [50]: > 76000 nM | GI50 [51]: 588 nM | TGI [51]: 7530 nM | GI50 [52]: 737 nM | TGI [52]: > 100000 nM | GI50 [53]: 500 nM | TGI [53]: 1320 nM | GI50 [54]: 412 nM | TGI [54]: 12800 nM | GI50 [55]: 391 nM | TGI [55]: > 100000 nM | GI50 [56]: 280 nM | TGI [56]: 1400 nM | GI50 [57]: 169 nM | TGI [57]: 548 nM | GI50 [58]: 338 nM | TGI [58]: > 100000 nM | GI50 [59]: 315 nM | TGI [59]: > 100000 nM
